Type in all cases: in vivo
In one test the test system is milkweed bug. Nature of the test: topical application to milkweed bug, fourth nymphal stage, maturation inhibition. From the text: (§1) The compounds were applied in acetone solution at concentrations of 10 percent, 1 percent and 0.5 percent. One microliter of the acetone solution was applied to each test specimen. Ten test specimens were employed for each insect at each concentration and compared to ten acetone controls and ten zero controls. Approximately eight to ten days were required before results could be ascertained.
(§2) The insect species used in the test were Tenebrio molitor pupae; milkweed bug, fourth nymphal stage; wax moth, fifth larval stage; and Mexican bean beetle, fourth larval stage. At the completion of the test, each specimen was examined for the degree of juvenile and adult characteristics. The milkweed bug, wax moth, and Mexican bean beetle were assigned a numerical rating of 0 to 3 with 0 indicating no effect and 3 indicating the maximum effect or least adult development. Because of differences in morphology the Tenebrio rating scale was 0 to 4. In all cases a rating of 2 or higher means that the insect is incapable of reproduction. The number of specimens in each rating classification are given. In any test were the total of specimens reported is less than 10, those unreported died in some metamorphic stage. Such deaths indicate control, since the dead insects are not capable of reproducing.

The test system of a further test is Tenebrio molitor pupae. Nature of the test: topical application to Tenebrio molitor pupae, maturation inhibition.
Source text: as §1, §2

The next test deals with wax moth. Nature of the test: topical application to wax moth, fifth larval stage, maturation inhibition.
Source text: as §1, §2

The next test relates to Mexican bean beetle. Briefly: topical application to Mexican bean beetle, fourth larval stage, maturation inhibition.
Source text: as §1, §2

The mark [1] stands for this setting: 10% in acetone, 1 microliter topical, rating scale 0 (no effect) to 4 (maximum).
[2] abbreviates: 10% in acetone, 1 microliter topical, rating scale 0 (no effect) to 3 (maximum).

Consider `CC(=CCCc1ccc2c(c1)OCO2)CCCC(C)C` [2,6-DIMETHYL-9-(3,4-METHYLENEDIOXYPHENYL)-6-NONENE], for which the “number of specimens in rating 0” value in the test on milkweed bug (0.5%, rating scale 0-3) was found to be 5 specimens; in the test on milkweed bug (1%, rating scale 0-3) it was 1 specimens; in the test with Tenebrio molitor pupae (0.5%, rating scale 0-4) it was 3 specimens; with Tenebrio molitor pupae (setting [1]), 1 specimens; with wax moth (0.5%, rating scale 0-3), 9 specimens; in the test with wax moth (1%, rating scale 0-3), 9 specimens. For the same compound, the “number of specimens in rating 0” value in the test on wax moth (setting [2]) was 10 specimens. Besides, the “number of specimens in rating 1” value in the test with milkweed bug (0.5%, rating scale 0-3) came out at 1 specimens; in the test on Tenebrio molitor pupae (0.5%, rating scale 0-4), 1 specimens; in the test on wax moth (0.5%, rating scale 0-3) it was 1 specimens; in the test with wax moth (1%, rating scale 0-3) it was 1 specimens; in the test with Mexican bean beetle (0.5%, rating scale 0-3) it was 1 specimens. The “number of specimens in rating 3” value in the test on milkweed bug (0.5%, rating scale 0-3) is on record as 3 specimens; in the test with milkweed bug (1%, rating scale 0-3), 8 specimens; in the test on milkweed bug (10%, rating scale 0-3) it was 7 specimens; in the test on Tenebrio molitor pupae (0.5%, rating scale 0-4), 2 specimens; with Mexican bean beetle (0.5%, rating scale 0-3), 2 specimens; with Mexican bean beetle (1%, rating scale 0-3), 10 specimens. For the same compound, the “number of specimens in rating 3” value with Mexican bean beetle (10%, rating scale 0-3) came to 10 specimens. Also, the “number of specimens in rating 2” value with Tenebrio molitor pupae (0.5%, rating scale 0-4) is recorded as 2 specimens; in the test on Tenebrio molitor pupae (1%, rating scale 0-4), 4 specimens; in the test with Mexican bean beetle (0.5%, rating scale 0-3), 7 specimens. The “number of specimens in rating 4” value in the test on Tenebrio molitor pupae (0.5%, rating scale 0-4) is 2 specimens; in the test on Tenebrio molitor pupae (1%, rating scale 0-4) it was 6 specimens; in the test on Tenebrio molitor pupae (10%, rating scale 0-4), 9 specimens.

Consider `COc1ccc(CCC=C(C)CCC=C(C)C)cc1` [2,6-DIMETHYL-9-(4-METHOXYPHENYL)-2,6-NONADIENE], for which the “number of specimens in rating 0” value in the test on milkweed bug (0.5%, rating scale 0-3) worked out at 10 specimens; in the test on milkweed bug (1%, rating scale 0-3), 5 specimens; with Tenebrio molitor pupae (0.5%, rating scale 0-4), 1 specimens; in the test with wax moth (0.5%, rating scale 0-3), 10 specimens; in the test on wax moth (1%, rating scale 0-3), 9 specimens; in the test on wax moth (setting [2]), 10 specimens. The “number of specimens in rating 0” value in the test with Mexican bean beetle (0.5%, rating scale 0-3) was found to be 10 specimens; with Mexican bean beetle (1%, rating scale 0-3), 10 specimens; in the test on Mexican bean beetle (setting [2]), 6 specimens. Besides, the “number of specimens in rating 1” value is reported as 5 specimens in the test on milkweed bug (1%, rating scale 0-3); 6 specimens in the test on Tenebrio molitor pupae (0.5%, rating scale 0-4); 1 specimens in the test on Tenebrio molitor pupae (1%, rating scale 0-4); 1 specimens in the test on Mexican bean beetle (10%, rating scale 0-3). For the same compound, the “number of specimens in rating 2” value in the test on Tenebrio molitor pupae (0.5%, rating scale 0-4) is listed as 3 specimens; with Tenebrio molitor pupae (1%, rating scale 0-4), 2 specimens; in the test on Mexican bean beetle (10%, rating scale 0-3) it was 3 specimens. Moreover, the “number of specimens in rating 3” value in the test with Tenebrio molitor pupae (1%, rating scale 0-4) amounted to 5 specimens. For the same compound, in the test on Tenebrio molitor pupae (1%, rating scale 0-4), the “number of specimens in rating 4” value was 2 specimens.

Turning to `CCC(C)=CCCC(C)=CCCc1ccc2c(c1)OCO2` [3,7-DIMETHYL-10-(3,4-METHYLENEDIOXYPHENYL)-3,7-DECADIENE], in the test with milkweed bug (0.5%, rating scale 0-3), the “number of specimens in rating 1” value came to 1 specimens. Moreover, the “number of specimens in rating 3” value with milkweed bug (0.5%, rating scale 0-3) was 8 specimens; in the test with milkweed bug (1%, rating scale 0-3) it was 9 specimens; in the test with milkweed bug (10%, rating scale 0-3), 5 specimens. For the same compound, the “number of specimens in rating 4” value with Tenebrio molitor pupae (0.5%, rating scale 0-4) is given as 10 specimens; with Tenebrio molitor pupae (1%, rating scale 0-4), 10 specimens; in the test with Tenebrio molitor pupae (10%, rating scale 0-4), 10 specimens.

For `CCCCCCCCCc1ccc2c(c1)OCO2` [5-(n-NONYL)-1,3-BENZODIOXOLE], the “number of specimens in rating 0” value turned out to be 8 specimens with milkweed bug (0.5%, rating scale 0-3); 3 specimens in the test with milkweed bug (1%, rating scale 0-3); 4 specimens with milkweed bug (setting [2]); 6 specimens in the test with Tenebrio molitor pupae (0.5%, rating scale 0-4); 2 specimens in the test with Tenebrio molitor pupae (1%, rating scale 0-4); 9 specimens in the test with Mexican bean beetle (0.5%, rating scale 0-3). The “number of specimens in rating 0” value with Mexican bean beetle (1%, rating scale 0-3) came out at 10 specimens. For the same compound, the “number of specimens in rating 1” value in the test on milkweed bug (0.5%, rating scale 0-3) was 1 specimens; with milkweed bug (1%, rating scale 0-3), 1 specimens; with Tenebrio molitor pupae (0.5%, rating scale 0-4), 1 specimens. Besides, the “number of specimens in rating 2” value was 1 specimens in the test on milkweed bug (1%, rating scale 0-3); 1 specimens in the test on milkweed bug (10%, rating scale 0-3); 3 specimens with Tenebrio molitor pupae (0.5%, rating scale 0-4); 5 specimens with Tenebrio molitor pupae (1%, rating scale 0-4). Further, the “number of specimens in rating 3” value with milkweed bug (1%, rating scale 0-3) worked out at 4 specimens; with milkweed bug (10%, rating scale 0-3) it was 5 specimens; in the test with Tenebrio molitor pupae (1%, rating scale 0-4) it was 1 specimens; in the test with Tenebrio molitor pupae (10%, rating scale 0-4), 3 specimens; in the test on Mexican bean beetle (10%, rating scale 0-3), 8 specimens. In addition, the “number of specimens in rating 4” value is reported as 1 specimens in the test on Tenebrio molitor pupae (1%, rating scale 0-4) and 7 specimens with Tenebrio molitor pupae (10%, rating scale 0-4).

As to `CC(C)CCCC(C)CCCc1ccc2c(c1)OCO2` (centres unmarked) [9-(3,4-methylenedioxyphenyl)-2,6-dimethylnonane], the “number of specimens in rating 3” value is on record as 8 specimens in the test with milkweed bug (0.5%, rating scale 0-3); 10 specimens with milkweed bug (1%, rating scale 0-3); 8 specimens in the test on milkweed bug (10%, rating scale 0-3); 3 specimens with Tenebrio molitor pupae (0.5%, rating scale 0-4). The “number of specimens in rating 4” value came to 7 specimens in the test on Tenebrio molitor pupae (0.5%, rating scale 0-4); 10 specimens in the test with Tenebrio molitor pupae (1%, rating scale 0-4); 10 specimens in the test with Tenebrio molitor pupae (10%, rating scale 0-4).

Consider `CC(C)=CCC/C(C)=C/CCc1cccs1` [trans-9-(2-THIENYL)-2,6-DIMETHYL-2,6-NONADIENE], for which the “number of specimens in rating 0” value is given as 10 specimens in the test on milkweed bug (0.5%, rating scale 0-3); 10 specimens in the test on milkweed bug (1%, rating scale 0-3); 3 specimens in the test with milkweed bug (setting [2]); 8 specimens in the test with Tenebrio molitor pupae (0.5%, rating scale 0-4); 10 specimens in the test on Tenebrio molitor pupae (1%, rating scale 0-4); 9 specimens in the test with Mexican bean beetle (0.5%, rating scale 0-3). In addition, the “number of specimens in rating 0” value with Mexican bean beetle (1%, rating scale 0-3) is listed as 5 specimens. Also, the “number of specimens in rating 3” value in the test on milkweed bug (10%, rating scale 0-3) came out at 4 specimens; with Mexican bean beetle (10%, rating scale 0-3), 10 specimens. For the same compound, the “number of specimens in rating 1” value in the test on Tenebrio molitor pupae (0.5%, rating scale 0-4) is recorded as 2 specimens; with Tenebrio molitor pupae (10%, rating scale 0-4), 1 specimens; with Mexican bean beetle (0.5%, rating scale 0-3) it was 1 specimens; in the test on Mexican bean beetle (1%, rating scale 0-3), 5 specimens. Also, the “number of specimens in rating 4” value in the test on Tenebrio molitor pupae (10%, rating scale 0-4) is recorded as 9 specimens.

In the case of `CC(C)=CCC/C(C)=C/CCc1cccc(Br)c1` [trans-9-(3-BROMOPHENYL)-2,6-DIMETHYL-2,6-NONADIENE], the “number of specimens in rating 3” value in the test with milkweed bug (0.5%, rating scale 0-3) is listed as 10 specimens; with milkweed bug (1%, rating scale 0-3), 10 specimens; in the test on milkweed bug (10%, rating scale 0-3), 10 specimens; with Mexican bean beetle (0.5%, rating scale 0-3), 1 specimens; in the test with Mexican bean beetle (1%, rating scale 0-3), 2 specimens; in the test on Mexican bean beetle (10%, rating scale 0-3), 1 specimens. Further, the “number of specimens in rating 0” value in the test with Tenebrio molitor pupae (0.5%, rating scale 0-4) is 8 specimens; in the test with Tenebrio molitor pupae (1%, rating scale 0-4) it was 8 specimens; in the test on Tenebrio molitor pupae (setting [1]), 8 specimens; in the test on Mexican bean beetle (0.5%, rating scale 0-3) it was 8 specimens; in the test with Mexican bean beetle (1%, rating scale 0-3) it was 7 specimens; in the test on Mexican bean beetle (setting [2]), 9 specimens. Also, the “number of specimens in rating 1” value in the test with Tenebrio molitor pupae (0.5%, rating scale 0-4) is 1 specimens; in the test on Tenebrio molitor pupae (1%, rating scale 0-4), 2 specimens; in the test with Tenebrio molitor pupae (10%, rating scale 0-4), 2 specimens; in the test with Mexican bean beetle (0.5%, rating scale 0-3), 1 specimens; in the test on Mexican bean beetle (1%, rating scale 0-3), 1 specimens. For the same compound, the “number of specimens in rating 2” value in the test with Tenebrio molitor pupae (0.5%, rating scale 0-4) is on record as 1 specimens.

Turning to `CC(C)=CCC/C(C)=C/CCc1ccc(Br)cc1` [trans-9-(4-BROMOPHENYL)-2,6-DIMETHYL-2,6-NONADIENE], the “number of specimens in rating 3” value is 10 specimens in the test on milkweed bug (0.5%, rating scale 0-3); 10 specimens in the test with milkweed bug (1%, rating scale 0-3); 9 specimens in the test on milkweed bug (10%, rating scale 0-3); 10 specimens in the test on Mexican bean beetle (0.5%, rating scale 0-3); 10 specimens in the test on Mexican bean beetle (1%, rating scale 0-3); 10 specimens with Mexican bean beetle (10%, rating scale 0-3). Also, the “number of specimens in rating 0” value in the test with Tenebrio molitor pupae (0.5%, rating scale 0-4) is 8 specimens; in the test with Tenebrio molitor pupae (1%, rating scale 0-4) it was 9 specimens. The “number of specimens in rating 1” value in the test on Tenebrio molitor pupae (0.5%, rating scale 0-4) came to 1 specimens; in the test with Tenebrio molitor pupae (1%, rating scale 0-4), 1 specimens. Further, the “number of specimens in rating 4” value is 1 specimens in the test with Tenebrio molitor pupae (0.5%, rating scale 0-4) and 10 specimens in the test on Tenebrio molitor pupae (10%, rating scale 0-4).
